Records with an inconclusive call do not appear. Active and inactive are the calls of the source.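 The calls were made as follows: active = Green signal of the normal strain falls at least twice as much as red signal of the resistant mutant, with overall culture growth loss under a set limit; inconclusive = no clear call, values can overlap the other calls; inactive = the rest.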
Test system: E. coli WT ribosome GFP fluorescence, mixed culture, 24 h
Experiment: growth inhibition of wild-type GFP E. coli, dose response, h38 mutant RFP, cherry-pick (AID 977622)
[1] = E. coli mixed culture, 24 h, measured here: total growth OD600

| Compound | AC50 [1] | AC50 |
| --- | --- | --- |
| CCCN1C(=O)C(O)(c2c(C)[nH]c3ccccc23)c2ccccc21 (stereo unspecified) | > 100 µM | – |
| CCOC(=O)c1sc(NC(=O)CN2CCN(c3ccccc3)CC2)nc1C | – | > 100 µM (inactive) |
| NS(=O)(=O)c1cccc(NC(=O)c2cccc(-c3ccc(O)cc3)c2)c1 | 50.2 µM | > 100 µM (inactive) |
| CCC(=O)Nc1nc2ccc(NC(=O)c3cc(OC)c(OC)c(OC)c3)cc2s1 | – | > 100 µM (inactive) |
| Cc1nn2c(NCc3ccccn3)cc(C(C)C)nc2c1-c1ccccc1 | – | > 100 µM (inactive) |
| COC(=O)c1ccc(CN2CCCC(CO)(Cc3ccccc3F)C2)cc1 (stereo unspecified) | – | > 100 µM (inactive) |
| CCCc1nc2cc(C)c(Br)c(C)n2c1CC1CCCCC1 | – | > 100 µM (inactive) |
| Cc1cccc(CN2C(=O)c3ccccc3Sc3ccc(C(=O)O)cc32)c1 | > 100 µM | – |
| COc1ccc(Cl)cc1C(=O)OCC(=O)c1ccc[nH]1 | – | > 100 µM (inactive) |
| COC(=O)c1cc2c(c3c4cc(F)ccc4n(S(=O)(=O)c4cccc(C)c4)c13)C(=O)N(Cc1ccco1)C2 | > 100 µM | – |
| C[C@@H]1CN([C@H](C)CO)C(=O)c2cccc(NC(=O)c3ccncc3)c2O[C@@H]1CN(C)S(=O)(=O)c1ccc(Cl)cc1 | – | > 100 µM (inactive) |
| O=C(CC(c1ccccc1)c1cc(Br)ccc1O)N1CCCC1 (stereo unspecified) | – | > 100 µM (inactive) |
| CCc1nnc(NS(=O)(=O)c2ccc(NC(=O)c3cccc(Cl)c3)cc2)s1 | – | > 100 µM (inactive) |
| CN(C)C(CNS(=O)(=O)c1cc([N+](=O)[O-])ccc1Cl)c1ccco1 (stereo unspecified) | > 100 µM | > 100 µM (inactive) |
| CNC(=O)c1ccsc1NC(=O)c1ccc(S(=O)(=O)N2CCc3ccccc32)cc1 | > 100 µM | – |
| O=C(CSc1nnc(COc2cccc3cccnc23)o1)c1ccc(F)cc1 | > 100 µM | – |
| O=C(NCCc1ccc(O)cc1)c1[nH]c(C(F)(F)F)nc1-c1ccccc1 | > 100 µM | > 100 µM (inactive) |
| COc1ccc(OC)c(N(CC(=O)Nc2ccccc2F)S(=O)(=O)c2ccccc2)c1 | – | > 100 µM (inactive) |
| CC(C)(C)C1CCC(OCC(O)CN2CCN(c3ccccn3)CC2)CC1 (stereo unspecified) | 44.7 µM | > 100 µM (inactive) |
| O=C(CCc1nc2ccccc2s1)OCC(=O)c1ccc[nH]1 | – | > 100 µM (inactive) |
| CCOc1ccc(OCCn2c(=S)[nH]c3c(N)ncnc32)cc1 | 39 µM | > 100 µM (inactive) |
| Cc1ccc(Nc2cc(C(=O)NCCCN3CCOCC3)c3ccccc3n2)cc1C | > 100 µM | > 100 µM (inactive) |

| Compound | AC50 [1] | AC50 |
| --- | --- | --- |
| CCOc1ccccc1N1CC(C(=O)Nc2cccc(S(=O)(=O)N3CCCCC3)c2)CC1=O (stereo unspecified) | > 100 µM | – |
| COc1ccccc1CN1Cc2ccccc2Oc2ccccc2S1(=O)=O | – | > 100 µM (inactive) |
| O=C(O)c1cccnc1SCc1ccccc1Cl | 42.8 µM | > 100 µM (inactive) |
| CN1C(=O)c2cc(NC(=O)c3cccc(F)c3)ccc2OC[C@H]2O[C@@H](CC(=O)N3CCc4ccccc4C3)CC[C@@H]21 | – | > 100 µM (inactive) |
| O=C(C[C@@H]1CC[C@H]2[C@@H](COC[C@H](O)CN2C(=O)Nc2cc(Cl)cc(Cl)c2)O1)N1CCOCC1 | – | > 100 µM (inactive) |
| COc1ccc(NC(=O)Nc2cccc3c2O[C@H](CN(C)S(=O)(=O)c2ccc(Cl)cc2)[C@H](C)CN([C@H](C)CO)C3=O)cc1 | 44.2 µM | > 100 µM (inactive) |
| C[C@H]1CN([C@@H](C)CO)C(=O)CCCn2nncc2CO[C@@H]1CN(C)Cc1ccccc1C(F)(F)F | > 100 µM | – |
| COc1ccc(NC(=O)Nc2cccc3c2O[C@@H](CN(C)S(=O)(=O)c2ccc(Cl)cc2)[C@@H](C)CN([C@@H](C)CO)C3=O)cc1 | 47.3 µM | > 100 µM (inactive) |
| Brc1ccc(-n2cnc(-c3ccccc3)c2)cc1 | – | > 100 µM (inactive) |
| Cc1ccc(CNC(=O)c2ccc(Br)o2)cc1 | – | > 100 µM (inactive) |
| O=C1c2ccccc2C(=O)N1CCc1c[nH]c2ccccc12 | > 100 µM | > 100 µM (inactive) |
| O=C(Nc1ccn(Cc2ccc(Cl)cc2)n1)c1ccccc1 | > 100 µM | – |
| OC(COc1ccc(Cl)cc1)CN1CCN(c2ccccn2)CC1 (stereo unspecified) | > 100 µM | – |
| COc1ccc(C(=O)NCCc2ccccn2)cc1S(=O)(=O)Nc1ccc(Br)cc1 | – | > 100 µM (inactive) |
| COc1ccc(C(=O)CSc2nc3ccccc3n2CC(=O)c2ccccc2)cc1 | – | > 100 µM (inactive) |
| COc1ccc(NC(=O)CSc2n[nH]c(-c3ccncc3)n2)c([N+](=O)[O-])c1 | > 100 µM | > 100 µM (inactive) |
| Cc1cc2nc(SCC(=O)O)nc(C)c2cc1C | > 100 µM | – |
| O=C(O)c1cc(-c2cccs2)nn1-c1cccc(Cl)c1 | – | > 100 µM (inactive) |
| CSc1ccccc1NC(=O)c1ccccc1N(Cc1ccccc1)S(C)(=O)=O | – | > 100 µM (inactive) |
| Cc1ccc(S(=O)(=O)N2CC[C@H]3[C@H](CO)Nc4ccc(Br)cc4[C@H]32)cc1 | 29.1 µM | > 100 µM (inactive) |
| CC1CN(CC(=O)Nc2nc3ccccc3s2)CC(C)O1 (stereo unspecified) | – | > 100 µM (inactive) |
| Cc1cc(-c2ccc(C)c(S(=O)(=O)NC(C)Cc3ccco3)c2)on1 (stereo unspecified) | 46.2 µM | > 100 µM (inactive) |

| Compound | AC50 [1] | AC50 |
| --- | --- | --- |
| CCCN(CC(=O)Nc1ccccc1C)C(=O)c1cccc(S(=O)(=O)N2CCc3ccccc3C2)c1 | – | > 100 µM (inactive) |
| Cc1cc(NC(=O)c2cccc(Oc3ccccc3)c2)n[nH]1 | 40.6 µM | > 100 µM (inactive) |
| FC(F)(F)c1ccc(Cl)c(-n2c(Cc3cccs3)n[nH]c2=S)c1 | – | > 100 µM (inactive) |
| Cc1ccc(-c2cc(-c3ccc(C)cc3)[n+](-c3ccc(C(=O)[O-])cc3)c(-c3ccc(C)cc3)c2)cc1 | – | > 100 µM (inactive) |
| O=C(NCc1cccnc1)C1CCN(S(=O)(=O)c2cc([N+](=O)[O-])ccc2Cl)CC1 | – | > 100 µM (inactive) |
| Cc1ccc(NC(=O)c2ccc([N+](=O)[O-])o2)c(C)c1 | – | > 100 µM (inactive) |
| O=C(CN(CCO)c1ccccc1)Nc1cccc(S(=O)(=O)N2CCCC2)c1 | – | > 100 µM (inactive) |
| Clc1ccc(-c2cn(-c3ccccc3)c3[n+]2CCS3)cc1 | – | > 100 µM (inactive) |
| Cc1nn(-c2ccc(N3CCCCC3)nn2)c(C)c1CCC(=O)Nc1ccc(F)cc1 | – | > 100 µM (inactive) |
| COC(=O)c1c(NC(=O)CCC(=O)O)sc(Cc2ccccc2)c1C | 18.8 µM | > 100 µM (inactive) |
| Cc1cccc(CSCC(=O)N2CCN(S(=O)(=O)c3ccccc3C#N)CC2)c1 | – | > 100 µM (inactive) |
| Cc1noc(NS(=O)(=O)c2ccc(NC(=O)c3cc(-c4ccccc4Cl)nc4ccccc34)cc2)c1C | – | > 100 µM (inactive) |
| Fc1ccc(-c2nnc(-c3ccc4ccccc4c3)o2)cc1 | – | > 100 µM (inactive) |
| Cc1ccsc1C(=O)OCC(=O)N1CCc2ccccc2C1 | > 100 µM | > 100 µM (inactive) |
| COC(=O)c1ccc(CCc2cc(O)c(Br)cc2O)cc1 | 46.5 µM | – |
| O=C1N[C@@H](Cc2ccccc2)COC(=O)[C@H](Cc2ccc(F)cc2)C/C=C\C[C@H]1CC(=O)N(CCO)Cc1ccccc1 | – | > 100 µM (inactive) |
| CC(CCC(=O)O)C1CC[C@@]2(C)C3C(=O)CC4C(C)(C)C(O)CC[C@]4(C)C3C(=O)C[C@]12C (stereo partly specified) | > 100 µM | > 100 µM (inactive) |
| COCCN(C(=O)c1ccccc1F)c1nnc(-c2ccc(OC)cc2)s1 | > 100 µM | > 100 µM (inactive) |
| c1ccc(-c2nc3c4ccccc4ccn3c2CN2CCOCC2)cc1 | – | > 100 µM (inactive) |
| NS(=O)(=O)c1cccc(NC(=O)COc2ncnc3c2cnn3-c2ccccc2)c1 | – | > 100 µM (inactive) |
| Clc1ccc(-c2nc3ccc(Br)cn3c2Cc2ccsc2)cc1 | 35 µM | > 100 µM (inactive) |
| CC(C)(CC(=O)O)CC(=O)NCc1c(Cl)cccc1Sc1ccc(Cl)cc1 | > 100 µM | – |

| Compound | AC50 [1] | AC50 |
| --- | --- | --- |
| COc1ccc(C)c2sc(N(CCN(C)C)C(=O)c3ccc(S(=O)(=O)N(C)c4ccccc4)cc3)nc12 | > 100 µM | – |
| COC(=O)c1ccc(OS(=O)(=O)c2ccc(NC(C)=O)cc2)cc1 | – | > 100 µM (inactive) |
| COc1cccc(-n2nnnc2SCC(=O)NCc2ccc3c(c2)OCO3)c1 | – | > 100 µM (inactive) |
| CC(=O)Nc1cccc(-c2ccnc3c2CC(C(=O)Nc2ccc4c(c2)OCO4)O3)c1 (stereo unspecified) | – | > 100 µM (inactive) |
| COC(=O)c1c(NC(=O)c2ccccc2C(=O)O)sc2c1CCC2 | – | > 100 µM (inactive) |
| O=C(NCc1ccc(-c2nc3ccccc3s2)cc1)c1ccco1 | 3 µM | > 100 µM (inactive) |
| Nc1ccccc1Nc1ccc([N+](=O)[O-])cc1[N+](=O)[O-] | – | > 100 µM (inactive) |
| CCCN(CC1CC1)C(=O)CSc1ncnc2sccc12 | – | > 100 µM (inactive) |
| COCc1c(C#N)c(NCCc2ccc(F)cc2)nc(C)c1[N+](=O)[O-] | – | > 100 µM (inactive) |
| Cc1ccccc1S(=O)(=O)NC(=O)C1(C)CCN1C(=O)C1(c2ccc(Cl)cc2)CC1 (stereo unspecified) | – | > 100 µM (inactive) |
| S=C1SCN(Cc2cccnc2)CN1Cc1ccccc1 | – | > 100 µM (inactive) |
| COc1ccc(C(=O)N(c2ccccc2)c2nccc3ccccc23)cc1OC | – | > 100 µM (inactive) |
| O=C(C[n+]1cc(-c2ccc(Cl)c(Cl)c2)n2c1CCC2)OCc1ccccc1 | – | > 100 µM (inactive) |
| O=C(O)c1ccc(Oc2ccc([N+](=O)[O-])cc2)c([N+](=O)[O-])c1 | – | > 100 µM (inactive) |
| CC(=O)N1CCOc2ccc(S(=O)(=O)N(C)c3ccc(C)cc3)cc21 | – | > 100 µM (inactive) |
| Cc1cc(C)c(OCCNC(=O)c2ccccc2Sc2ccccc2C#N)c(C)c1 | – | > 100 µM (inactive) |
| Cc1n[nH]c(C)c1S(=O)(=O)N1CCCC(C(=O)Nc2ccc(Br)cc2)C1 (stereo unspecified) | > 100 µM | – |
| O=c1[nH]c(C2CCN(S(=O)(=O)c3ccc4c(c3)OCCO4)CC2)nc2c1nnn2Cc1ccccc1F | – | > 100 µM (inactive) |
| Cc1cc(C(=O)OCC(=O)Nc2cccc(S(N)(=O)=O)c2)c2ccccc2n1 | > 100 µM | > 100 µM (inactive) |
| COc1ccc(CN2CCC3CC2c2cc(Cl)ccc23)cc1 (stereo unspecified) | > 100 µM | – |
| CC(C)Oc1ccc(C(CC(=O)O)NC(=O)C(Sc2ccccc2)c2ccccc2)cc1 (stereo unspecified) | > 100 µM | > 100 µM (inactive) |
| O=[N+]([O-])c1ccc(N2CCOCC2)c2c1no[n+]2[O-] | > 100 µM | > 100 µM (inactive) |
